Assay results reported in US7091238B1, “Thienylhydrazon with digitalis-like properties (positive inotropic effects)” (University of Maryland, priority 1999, dated 2006).

Columns and labels:
rat thoracic aorta = details: reported by Delpy and Gouville (1996); cited from earlier work
[1] = tested on: neuromuscular transmission; assay: Contractions of gastrocnemius muscle induced by stimulation of the sciatic nerve; format: in vivo; details: rat gastrocnemius
Experimental: FIG. 30. Records of contractions induced by stimulation of the sciatic nerve of equilibrated rat gastrocnemius muscles and of arterial pressure. In control, contractions were induced by intravenous injection of DMSO ([…]). LASSBio-294 was administered in DMSO. Calibration: Horizontal, 1 cm=24 s; Vertical 2 g=100 mm Hg.
FIG. 31. Records of contractions of rat gastrocnemius muscles induced by stimulation of the sciatic nerve and of arterial pressure. For control, contraction was induced by intravenous injection of […] (0.04 ml). LASSBio-294 was administered in DMSO.

| Structure (SMILES) | relaxant effect after removal of endothelium (rat thoracic aorta) | depression of muscle contraction (test of functionality of the model) [1] |
| --- | --- | --- |
| CCCOc1ccc(NS(C)(=O)=O)cc1-c1nc2c(c(C)nn2C)c(=O)[nH]1 [DMPPO] | lost its effect | – |
| C=CC[N@@+]12CC[C@@]34c5ccccc5N5/C=C6/[C@H]7C[C@H]8[C@@]9(CC[N@@+]8(CC=C)C/C7=C/CO)c7ccccc7N(/C=C(/[C@@H](C[C@@H]31)/C(=C\CO)C2)[C@H]54)[C@@H]69.[Cl-].[Cl-] [alloferine, reference compound] | – | depression of muscle contraction |
